Data set [1] deals with GAL4EcR + VP16RXR. As to the kind of experiment: Transactivation of reporter genes through switch 1.1 in 3T3 cells. Conditions: GAL4CfEcRDEF/VP16MmRXRDEF (switch 1.1), 1.0 μM ligand, 48 hr. An excerpt: (§1) In various cellular backgrounds, including mammalian cells, insect ecdysone receptor (EcR) heterodimerizes with retinoid X receptor (RXR) and, upon binding of ligand, transactivates genes under the control of ecdysone response elements. Applicants constructed several EcR-based gene expression cassettes based on the spruce budworm Choristoneura fumiferana EcR (“CfEcR”; full length polynucleotide and amino acid sequences are set forth in SEQ ID NO: 49 and SEQ ID NO: 50, respectively), C. fumiferana ultraspiracle (“CfUSP”; full length polynucleotide and amino acid sequences are set forth in SEQ ID NO: 51 and SEQ ID NO: 52, respectively), and mouse Mus musculus RXRα (MmRXRα; full length polynucleotide and amino acid sequences are set forth in SEQ ID NO: 53 and SEQ ID NO: 54, respectively). The prepared receptor constructs comprise a ligand binding domain of EcR and of RXR or of USP; a DNA binding domain of GAL4 or of EcR; and an activation domain of VP16. The reporter constructs include a reporter gene, luciferase or LacZ, operably linked to a synthetic promoter construct that comprises either GAL4 or EcR/USP binding sites (response elements). Various combinations of these receptor and reporter constructs were cotransfected into CHO, NIH3T3, CV1 and 293 cells. […] Reporter gene expression activities were assayed at 24 hr or 48 hr after ligand addition.
(§2) The same procedures described for CHO cells were followed for 3T3 cells as well with two modifications. The cells were plated when they reached 50% confluency. 125,000 or 50,000 or 25,000 cells were plated per well of 6- or 12- or 24-well plates respectively. The GAl4EcR/VP16RXR and reporter vector DNAs were transfected into NIH3T3 cells, the transfected cells were grown in medium containing PonA, MurA, N-(2-ethyl-3-methoxybenzoyl)-N′-(3,5-dimethylbenzoyl)-N′-t-butylhydrazine, or N-(3,4-(1,2-ethylenedioxy)-2-methylbenzoyl)-N′-(3,5-dimethylbenzoyl)-N′-tert-butylhydrazine for 48 hr. The ligand treatments were performed as described in the CHO cell section above.
(§3) Cells were harvested 24-48 hr after adding ligands. 125, 250, or 500 μl of passive lysis buffer (part of Dual-luciferase™ reporter assay system from Promega Corporation) were added to each well of 24- or 12- or […] respectively. The plates were placed on a rotary shaker for 15 min. Twenty μl of lysate was assayed. Luciferase activity was measured using Dual-luciferase™ reporter assay system from Promega Corporation following the manufacturer's instructions. β-Galactosidase was measured using Galacto-Star™ assay kit from TROPIX following the manufacturer's instructions. All luciferase and β-galactosidase activities were normalized using Renilla luciferase as a standard. Fold activities were calculated by dividing normalized relative light units (“RLU”) in ligand treated cells with normalized RLU in DMSO treated cells (untreated control).
(In general: Reporter assays use an easily measured gene product as a stand-in for the process of interest.)

For data set [2], the system named is GAL4RXR + VP16CfEcR. The data set is described as follows: Transactivation of reporter genes through switch 1.3 in 3T3 cells. Conditions: GAL4MmRXRDEF/VP16CfEcRCDEF (switch 1.3), 1.0 μM ligand.
Source text: as §1
MmRXRDEF (SEQ ID NO: 22) was fused to a GAL4DNABD (SEQ ID NO: 41) and CfEcRCDEF (SEQ ID NO: 1) was fused to a VP16AD (SEQ ED NO: 45).
as §2, §3

The test system of data set [3] is CfEcR. The data set is described as follows: Comparison of switches in the mammalian cell lines tested (Tables 1-4). The format is cell-based, Choristoneura fumiferana. The settings on record: see Tables 1-4. The procedure: Several commercially available lipofactors as well as electroporation methods were evaluated and the best conditions for transfection of each cell line were developed. CHO, NIH3T3, 293 and CV1 cells were grown to 60% confluency. DNAs corresponding, to the various switch constructs outlined in Examples 1.1 through 1.10 were transfected into CHO cells, NIH3T3 cells, 293 cells, or CV1 cells as follows.
Cells were harvested 24-48 hr after adding ligands. […] Twenty μl of lysate was assayed.

For data set [4], the system named is CfEcR/RXR-based switch. The data set is described as follows: Luciferase reporter assay of truncated CfEcR and MmRXR receptor pairs in NIH3T3 cells (Example 2). The settings on record: NIH3T3 cells, 0, 1, 5 or 25 uM ligand, 48 hr; FIGS. 11-14. Type of data set: cell-based, Choristoneura fumiferana. The procedure: Briefly, polynucleotides encoding EcR or RXR receptors were truncated at the junctions of A/B, C, D, E and F domains and fused to either a GAL4 DNA binding domain encoding polynucleotide (SEQ ID NO: 41) for CfEcR, or a VP16 activation domain encoding polynucleotide (SEQ ID NO: 45) for MmRXR as described in Example 1. The resulting receptor truncation/fusion polypeptides were assayed in NIH3T3 cells. Plasmid pFRLUC (Stratagene) encoding a luciferase polypeptide was used as a reporter gene construct and pTKRL (Promega) encoding a Renilla luciferase polypeptide under the control of the constitutive TK promoter was used to normalize the transfections as described above. The analysis was performed in triplicates and mean luciferase counts were determined as described above.
Gene expression cassettes comprising polynucleotides encoding either full length or truncated CfEcR polypeptides fused to a GALA. […] The cells were harvested, lysed and luciferase reporter activity was measured in the cell lysates. […]

As to `CC(C)CC[C@@H](O)[C@](C)(O)[C@H]1CC[C@@]2(O)C3=CC(=O)[C@]4(O)C[C@@H](O)[C@@H](O)C[C@]4(C)[C@H]3[C@H](O)C[C@]12C` [Muristerone A, reference compound], the “Mean Fold Induction at 1.0 μM Concentration” value (from here on “Mean Fold Induction”) in data set [1] and in data set [2] was 1.0 fold each time.
For the compound `Cc1cc(C)cc(C(=O)N(NC(=O)c2ccc3c(c2C)OCCO3)C(C)(C)C)c1` [N-(3,4-(1,2-ethylenedioxy)-2-methylbenzoyl)-N′-(3,5-dimethylbenzoyl)-N′-tert-butylhydrazine], the entries for the “Mean Fold Induction” value in data set [1] and in data set [2] were 601 fold and 54 fold, respectively. In addition, the “potency as activators of CfEcR as compared to DmEcR” value in data set [3] is listed as “more potent activators of CfEcR”.
Turning to `CC(C)CC[C@@H](O)[C@](C)(O)[C@H]1CC[C@@]2(O)C3=CC(=O)[C@@H]4C[C@@H](O)[C@@H](O)C[C@]4(C)[C@H]3CC[C@]12C` [Ponasterone A, reference compound], the “Mean Fold Induction” value in data set [1] and in data set [2] was 1.0 fold throughout. In addition, the “sensitivity of the EcR/RXR switch to the ligand” value in data set [4] is “insensitive”.

These data come from patent publication US8822754B2, “Ecdysone receptor-based inducible gene expression system” (Intrexon Corporation, priority 2000, dated 2014).
